Assay results reported in BindingDB's records for doi:10.7270/Q2Q81BH4 (Nmmlsc, 2009).

Target: T1, Mitogen-activated protein kinase kinase kinase 3 (Homo sapiens, UniProt Q99759)
T1 sequence (Q99759 whole entry): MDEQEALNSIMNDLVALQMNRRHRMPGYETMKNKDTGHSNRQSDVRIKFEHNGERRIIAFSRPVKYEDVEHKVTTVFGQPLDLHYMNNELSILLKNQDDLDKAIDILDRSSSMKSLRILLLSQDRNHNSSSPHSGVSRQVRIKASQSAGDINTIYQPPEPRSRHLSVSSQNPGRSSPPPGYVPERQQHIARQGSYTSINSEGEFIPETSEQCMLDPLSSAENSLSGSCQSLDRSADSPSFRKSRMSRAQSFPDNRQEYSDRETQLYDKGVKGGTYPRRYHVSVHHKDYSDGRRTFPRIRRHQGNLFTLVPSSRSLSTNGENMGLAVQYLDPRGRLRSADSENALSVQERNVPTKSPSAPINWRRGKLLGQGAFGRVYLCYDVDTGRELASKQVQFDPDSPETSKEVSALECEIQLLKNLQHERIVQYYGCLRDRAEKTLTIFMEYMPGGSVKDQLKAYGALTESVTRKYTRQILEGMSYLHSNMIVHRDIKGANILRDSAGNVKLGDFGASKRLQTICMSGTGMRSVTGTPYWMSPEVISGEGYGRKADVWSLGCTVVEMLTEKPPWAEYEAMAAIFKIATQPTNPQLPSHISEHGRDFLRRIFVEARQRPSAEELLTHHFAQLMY
Test: inhibitors of MEK5 binding to MEKK3, SAR follow-up, multiplex assay, wild-type MEKK3 (AID 2145)
Details: not given

SMILES	EC50
c1ccc(-c2nnc3sc(-c4ccc[nH]4)nn23)nc1	> 30 µM
c1ccc(-c2nnc3sc(C4CCCCCC4)nn23)nc1	> 30 µM
COc1cc([N+](=O)[O-])ccc1-c1nn2c(-c3ccccn3)nnc2s1	> 30 µM
COc1cccc(-c2nn3c(-c4ccccn4)nnc3s2)c1	> 30 µM
c1csc(Cc2nn3c(-c4ccncc4)nnc3s2)c1	> 30 µM
COc1cc([N+](=O)[O-])ccc1-c1nn2c(-c3ccco3)nnc2s1 [3-(2-furanyl)-6-(2-methoxy-4-nitrophenyl)-[1,2,4]triazolo[3,4-b][1,3,4]thiadiazole]	> 30 µM
COc1ccc(-c2nn3c(-c4ccccn4)nnc3s2)cc1OC [6-(3,4-dimethoxyphenyl)-3-(2-pyridinyl)-[1,2,4]triazolo[3,4-b][1,3,4]thiadiazole]	> 30 µM
CCOc1cccc(-c2nn3c(-c4ccco4)nnc3s2)c1 [6-(3-ethoxyphenyl)-3-(2-furanyl)-[1,2,4]triazolo[3,4-b][1,3,4]thiadiazole]	> 30 µM
c1coc(-c2nnc3sc(C4CCCCCC4)nn23)c1 [6-cycloheptyl-3-(2-furanyl)-[1,2,4]triazolo[3,4-b][1,3,4]thiadiazole]	> 30 µM
c1coc(-c2nnc3sc(C4CCCCC4)nn23)c1 [6-cyclohexyl-3-(2-furanyl)-[1,2,4]triazolo[3,4-b][1,3,4]thiadiazole]	> 30 µM
c1c[nH]c(-c2nn3c(-c4ccco4)nnc3s2)c1 [(6Z)-3-(2-furanyl)-6-(2-pyrrolylidene)-5H-[1,2,4]triazolo[3,4-b][1,3,4]thiadiazole]	> 30 µM
c1ccc(-c2nnc3sc(C4CCCCC4)nn23)nc1 [VU0364704-1]	> 30 µM

Same assay, conditions: inactive by the depositor's call

SMILES	EC50
CCOc1cccc(-c2nn3c(-c4cccs4)nnc3s2)c1 [6-(3-ethoxyphenyl)-3-thiophen-2-yl-[1,2,4]triazolo[3,4-b][1,3,4]thiadiazole]	1.1 µM
